Data taken from patent US10052311B2, “PPAR compounds for use in the treatment of fibrotic diseases” (INVENTIVA, priority 2014, dated 2018).

Experiments:
anti-GBM exposed mice = test: Anti-GBM induced glomerulonephritis in mice; format: in vivo, mouse; details: vs vehicle
bleomycin-exposed mice [1] = test: Bleomycin-induced skin fibrosis in mice; format: in vivo, mouse; details: vs vehicle
Procedure: The experiments were carried out on 6-week-old male C56BL/6 mice (Janvier, Le Genest-Saint-Isle, France).
0.9% NaCl was used as control (100 μL subcutaneous injections).
On day 21, mice were sacrificed by cervical dislocation, and skin samples were taken and processed for analysis.
Lesional skin areas were excised, fixed in 4% formalin and embedded in paraffin. Five μm thick sections were stained with haematoxylin and eosin. The dermal thickness was analyzed at 100-fold magnification by measuring the distance between the epidermal-dermal junction and the dermal-subcutaneous fat junction at four sites from lesional skin of each mouse. Two independent examiners performed the evaluation before a consensus in case of more of 10% of variability of the measures.
The collagen content in lesional skin samples was explored by hydroxyproline assay. After digestion of punch biopsies (ø3 mm) in 6M HCl for three hours at 120° C., the pH of the samples was adjusted to 7 with 6M NaOH. Afterwards, samples were mixed with 0.06 M chloramine T and incubated for 20 min at room temperature. […] The absorbance was determined at 557 nm with a Spectra MAX 190 microplate spectrophotometer (Molecular Devices, Sunnyvale, Calif., USA).
Total soluble collagen in cell culture supernatants was quantified using a Sircol collagen assay (Biocolor). Briefly, cell culture supernatant was mixed with sirius red dye for 30 minutes at room temperature. After centrifugation, the pellet was dissolved in alkali reagent. Measurement was performed using a SpectraMax 190 microplate spectrophotometer (Molecular Devices) at a wavelength of 540 nm.
Data were expressed as mean±standard error of the mean. The Student t-test was used for statistical analyses. A p value of less than 0.05 was considered as a statistically significant result.

human PPARδ = molecular target: T1, human PPARδ (Homo sapiens, UniProt Q03181); test: Transient transactivation assay, Cos-7 cells, chimeric PPARδ-Gal4, luciferase reporter; format: cell-based; details: Gal4 chimera, mean of 6 experiments
T1 sequence (Q03181 211-441 limits assumed): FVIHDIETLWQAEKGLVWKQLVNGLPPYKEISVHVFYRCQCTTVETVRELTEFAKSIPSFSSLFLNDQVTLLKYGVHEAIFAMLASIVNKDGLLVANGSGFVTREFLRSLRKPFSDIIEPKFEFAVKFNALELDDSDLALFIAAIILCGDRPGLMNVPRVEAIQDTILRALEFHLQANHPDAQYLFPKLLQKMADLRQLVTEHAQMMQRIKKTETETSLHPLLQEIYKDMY
Procedure: (§1) Transfections were performed by a chemical agent (Jet PEI).

mouse PPARδ = molecular target: T2, mouse PPARδ (Mus musculus, UniProt P35396); test: as above; format: cell-based; details: Gal4 chimera, mean of 5 experiments, estimated (plateau not reached)
T2 sequence (P35396 210-440 limits assumed): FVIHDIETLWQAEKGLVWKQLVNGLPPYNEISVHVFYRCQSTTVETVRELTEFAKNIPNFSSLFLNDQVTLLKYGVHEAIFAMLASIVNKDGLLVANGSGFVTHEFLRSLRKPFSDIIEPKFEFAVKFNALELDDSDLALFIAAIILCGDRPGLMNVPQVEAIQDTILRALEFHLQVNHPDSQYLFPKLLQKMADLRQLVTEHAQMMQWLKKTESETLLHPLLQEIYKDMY
Procedure: as §1

[2] = system: primary human dermal fibroblasts; test: PDGF-induced proliferation, EdU incorporation assay; format: cell-based; details: Fibroblast, 24 h, NC: not converged
Procedure: (§2) The ability of compound A to inhibit PDGF-induced lung and dermal fibroblasts proliferation was determined by performing EdU (5-ethynyl-2′-deoxyuridine) incorporation assays. These assays were carried out using primary human lung or skin fibroblasts (Promocell). The cells were plated in 96-well plates in full growth medium for 24 h, followed by 24 h starvation in serum-free medium. The medium was then replaced by fresh medium containing PDGF and compound A to be tested (at concentrations ranging from 10^−4 M to 4.5 10^−8 M) for another 24 h. EdU was added to the cells for the last 16 h of the compound treatment. The culture medium was then removed, the cells were fixed with formaldehyde and the EdU incorporated in the DNA of diving cells was quantified using fluorescent Click-it assay according to the manufacturer's instructions (Invitrogen). […] Results were expressed as % of EdU-positive cells out of the total cell number. The results present the mean of biological triplicates. Dose-effect curves and IC50 values were calculated using the GraphPad Prism software.

[3] = system: primary human lung fibroblasts; test: as above; format: cell-based; details: Fibroblast, 24 h, NC: not converged
Procedure: as §2

human PPARγ = human PPARγ (Homo sapiens, UniProt P37231); test: cell-based
mouse PPARγ = mouse PPARγ (Mus musculus, UniProt P37238); test: cell-based
bleomycin-exposed mice [4] = test: Bleomycin-induced pulmonary fibrosis in mice; details: vs vehicle
Procedure: At the end of the treatment, animals were sacrificed and plasma samples and livers were harvested. Expression of genes that are known to be implicated in the pulmonary inflammation process was quantified and plasmatic levels of lung parameters were measured.
The animals were housed in groups of 3-10 in polypropylene cages (floor area=1032 cm^2) under standard conditions: room temperature (22±2° C.), hygrometry (55±10%), light/dark cycle (12 h/12 h), air replacement (15-20 volumes/hour), water and food (SDS, RM1) ad libitum. Mice were allowed to accommodate themselves for at least 5 days prior to the experimentation. Mice were numbered by marking their tail using indelible markers.
Bleomycin (Laboratoire Bellon) was dissolved in 0.9% NaCl (CDM Lavoisier, France) just before use.
On day 14, 2 hours after dosing, animals were anaesthetised with pentobarbital (60 mg/kg, ip) and blood was collected using cardiac puncture. […] Blood sampling (0.9 mL of total blood) was placed in pre-chilled 2-mL lithium-heparin collection tubes. The blood samples were gently mixed, placed on crushed ice and centrifuged within 30 min of sampling at approximately 1500×g for 10 min at approximately +4° C. For each blood sampling, the resultant plasma was separated into 2 aliquots (at least 100 μL each) and transferred using disposable plastic material into polypropylene tubes. The samples were immediately transferred in the upright position to a freezer where they were kept at −20° C.
After terminal blood sampling, lung tissue was removed: • A first tissue sample (middle lobe) was harvested and fixed with paraformaldehyde, and kept at 5±3° C. • A second tissue sample (right lobe) was frozen in liquid nitrogen and kept at −20° C.
For the quantification of collagen, sections were stained with Picro-Sirius red and counterstained with Mayer's haematoxylin. […] For all slides, analysis was performed by a single experimenter strictly in the same conditions.
mRNA extraction was performed on small frozen lung samples (50-100 mg). Briefly, samples were cryogenically ground with mortar and pestle. […] RNA quantity was determined with Nanodrop (ND2000 Thermo Scientific) and RNA quality was verified with Bioanalyzer (2100 Agilent Technology).
Real Time PCR was performed on ABI PRISM 7900 apparatus Raw data from ABI7900 were exported in text format. […] Each RNA samples were reverse transcribed and quantified in triplicate.
Samples of lung and supernatants were kept on ice during all experiment. For extraction, the manufacturer recommends 10 mg of tissue for 100 μl T-Per+1 μl “Halt-protease” (100×).
50 ml of T-Per buffer were prepared, to which 500 μl of “Halt-protease” (100×) were added, and the mixture was kept on ice. Samples of 50 to 70 mg of lung just thawed were weighed and cut into small pieces, and 1 ml of cold PBS was added to wash the tissue. The mixture was centrifuged at 500 g during 5 min at 4° C., and the supernatant was discarded. 100 μl/10 mg of T-Per+antiproteases (100×) were added, crushing the lung with a Potter, with 5 or 6 twists, up and down. The mixture was centrifuged at 10000 g during 5 min at 4° C. The supernatant was removed, aliquoted and kept at −20° C. for the subsequent measurement of biomarkers.
All proteins were quantified with ELISA Kit, according to the instructions of the manufacturers: • osteopontin: Quantikine Mouse Osteopontin immunoassay, R&D SYSTEMS®, Ref:MOST00 • MCP-1: Quantikine Mouse CCL2/JE/MCP-1 ELISA Kit, R&D SYSTEMS®, ref: MJE00 • TIMP-1: Mouse TIMP-1, R&D SYSTEMS®, Ref: TM100.
All parameters were analysed using Graphpad software (version 5.1). The parameters were analysed as followed: • Using one-way ANOVA (treatment) to compare groups (1, 2 and 3). […] When ANOVA was found significant, a Dunnett's test was used to compare group 1 to group 4, to group 5, to group 6 and to group 7).

Chain of human PPARγ (P37231 238-505 limits assumed): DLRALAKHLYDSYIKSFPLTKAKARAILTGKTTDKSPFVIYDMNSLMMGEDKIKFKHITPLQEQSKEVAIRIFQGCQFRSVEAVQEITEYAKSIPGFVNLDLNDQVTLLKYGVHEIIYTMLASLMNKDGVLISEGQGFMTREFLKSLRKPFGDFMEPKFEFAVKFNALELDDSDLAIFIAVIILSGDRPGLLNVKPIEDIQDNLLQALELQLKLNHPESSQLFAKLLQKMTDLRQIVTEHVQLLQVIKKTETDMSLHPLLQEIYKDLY
Chain of mouse PPARγ (P37238 238-505 limits assumed): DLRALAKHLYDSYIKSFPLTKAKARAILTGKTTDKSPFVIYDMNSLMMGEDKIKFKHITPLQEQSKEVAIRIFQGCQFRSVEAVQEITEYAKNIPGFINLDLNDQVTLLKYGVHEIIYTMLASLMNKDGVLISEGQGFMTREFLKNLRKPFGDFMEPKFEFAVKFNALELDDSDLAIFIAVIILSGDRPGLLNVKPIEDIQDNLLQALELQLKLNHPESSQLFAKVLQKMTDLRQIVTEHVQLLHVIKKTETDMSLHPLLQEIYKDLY

For `O=C(O)CCCc1cc2cc(Cl)ccc2n1S(=O)(=O)c1ccc2ncsc2c1` [compound A, 5-Chloro-1-[(6-benzothiazolyl)sulfonyl]-1H-indole-2-butanoic acid], the “Col1a expression (kidney)” value (anti-GBM exposed mice; 30 mg/kg/day po 7 days) was “reduced”, the “Col3a expression (kidney)” value (anti-GBM exposed mice; 30 mg/kg/day po 7 days) was “reduced” and the “kidney MCP-1 levels” value (anti-GBM exposed mice; 30 mg/kg/day po 7 days) was “reduced”. The kidney osteopontin levels (anti-GBM exposed mice; 30 mg/kg/day po 7 days) was “reduced”, the serum urea levels (anti-GBM exposed mice; 30 mg/kg/day po 7 days) was “reduced” and the urinary albumin levels (anti-GBM exposed mice; 30 mg/kg/day po 7 days) was “reduced”. For the same compound, the urinary volume (anti-GBM exposed mice; 30 mg/kg/day po 7 days) was “reduced urinary volume compared to vehicle without reaching significance”, the “Col1a expression (kidney)” value (anti-GBM exposed mice; 100 mg/kg/day po 7 days) was “significantly inhibited Col1a expression” and the “Col3a expression (kidney)” value (anti-GBM exposed mice; 100 mg/kg/day po 7 days) was “significantly inhibited Col3a expression”. The “TGFβR-1 expression (kidney)” value (anti-GBM exposed mice; 100 mg/kg/day po 7 days) was “significantly inhibited TGFβ-R1 expression”, the “kidney MCP-1 levels” value (anti-GBM exposed mice; 100 mg/kg/day po 7 days) was “significantly reduced MCP-1 levels” and the kidney osteopontin levels (anti-GBM exposed mice; 100 mg/kg/day po 7 days) was “significantly reduced osteopontin levels”. For the same compound, the “number of pathological glomeruli” value (anti-GBM exposed mice; 100 mg/kg/day po 7 days) was “significantly reduced the number of pathological glomeruli”, the serum urea levels (anti-GBM exposed mice; 100 mg/kg/day po 7 days) was “significantly reduced urea levels” and the urinary albumin levels (anti-GBM exposed mice; 100 mg/kg/day po 7 days) was “reduced albumin levels compared to vehicle without reaching significance”. For the same compound, the urinary volume (anti-GBM exposed mice; 100 mg/kg/day po 7 days) was “reduced urinary volume compared to vehicle without reaching significance”, the “collagen content (skin)” value (bleomycin-exposed mice [1]; 30 mg/kg po 21 days) was “significantly reduced the collagen content” and the dermal thickness (bleomycin-exposed mice [1]; 30 mg/kg po 21 days) was “significantly reduced dermal thickness”. The “hydroxyproline content in lesioned skin” value (bleomycin-exposed mice [1]; 30 mg/kg po 21 days) was “significantly lower”, the “collagen content (skin)” value (bleomycin-exposed mice [1]; 100 mg/kg po 21 days) was “significantly reduced the collagen content” and the dermal thickness (bleomycin-exposed mice [1]; 100 mg/kg po 21 days) was “more significantly reduced dermal thickness”. For the same compound, the “hydroxyproline content in lesioned skin” value (bleomycin-exposed mice [1]; 100 mg/kg po 21 days) was “significantly lower”, the EC50 (human PPARδ) was 530 nM and the EC50 (mouse PPARδ) was 2000 nM. For the same compound, the IC50 [2] was 11500 nM, the IC50 [3] was 10900 nM and the EC50 (human PPARγ) was 180 nM. The EC50 (mouse PPARγ) was 170 nM, the “MCP-1 expression (lung)” value (bleomycin-exposed mice [4]; 30 mg/kg/day po 15 days) was “inhibited MCP-1 expression compared to vehicle without reaching significance” and the “TIMP-1 expression (lung)” value (bleomycin-exposed mice [4]; 30 mg/kg/day po 15 days) was “inhibited TIMP-1 expression compared to vehicle without reaching significance”. The “lung MCP-1 levels” value (bleomycin-exposed mice [4]; 30 mg/kg/day po 15 days) was “reduced MCP-1 levels compared to vehicle without reaching significance”, the “lung TIMP-1 levels” value (bleomycin-exposed mice [4]; 30 mg/kg/day po 15 days) was “significantly reduced TIMP-1 levels” and the lung osteopontin levels (bleomycin-exposed mice [4]; 30 mg/kg/day po 15 days) was “reduced osteopontin levels compared to vehicle without reaching significance”. The “osteopontin expression (lung)” value (bleomycin-exposed mice [4]; 30 mg/kg/day po 15 days) was “significantly inhibited osteopontin expression”, the “Col1a expression (lung)” value (bleomycin-exposed mice [4]; 100 mg/kg/day po 15 days) was “significantly inhibited Col1a expression” and the “Col3a expression (lung)” value (bleomycin-exposed mice [4]; 100 mg/kg/day po 15 days) was “significantly inhibited Col3a expression”. For the same compound, the “MCP-1 expression (lung)” value (bleomycin-exposed mice [4]; 100 mg/kg/day po 15 days) was “inhibited MCP-1 expression compared to vehicle without reaching significance”, the “TGFβR-1 expression (lung)” value (bleomycin-exposed mice [4]; 100 mg/kg/day po 15 days) was “significantly inhibited TGFβR-1 expression” and the “TIMP-1 expression (lung)” value (bleomycin-exposed mice [4]; 100 mg/kg/day po 15 days) was “inhibited TIMP-1 expression compared to vehicle without reaching significance”. For the same compound, the “collagen deposition (lung)” value (bleomycin-exposed mice [4]; 100 mg/kg/day po 15 days) was “significantly decreased collagen deposition levels”, the “fibronectin expression (lung)” value (bleomycin-exposed mice [4]; 100 mg/kg/day po 15 days) was “significantly inhibited fibronectin expression” and the “lung MCP-1 levels” value (bleomycin-exposed mice [4]; 100 mg/kg/day po 15 days) was “reduced MCP-1 levels compared to vehicle without reaching significance”. For the same compound, the “lung TIMP-1 levels” value (bleomycin-exposed mice [4]; 100 mg/kg/day po 15 days) was “significantly reduced TIMP-1 levels”, the lung osteopontin levels (bleomycin-exposed mice [4]; 100 mg/kg/day po 15 days) was “reduced osteopontin levels compared to vehicle without reaching significance” and the “osteopontin expression (lung)” value (bleomycin-exposed mice [4]; 100 mg/kg/day po 15 days) was “significantly inhibited osteopontin expression”.
